≈ marks a conversion by molar mass, not a printed value. Where two headings read alike, the source gives them in different places.
Legend:
[1] = system: various Aspergillus species; test: Robotic MIC assay, summary over species (Example 4); format: cell-based; details: Aspergillus species tested
Procedure: Aspergillus sp. was grown at 30° C. for 96 h on YM-agar. Spores and aerial mycelium was cut out from the agar, suspended in 1 ml YM-broth and dispersed with glass beads (1 mm) in a mini bead beater for 2 min. Glycerol was added to the suspension to 10% and frozen at −80° C.
Each batch of frozen stock culture was then characterized in separate growth experiments using Mueller-Hinton broth to determine the minimum amount of inoculum giving satisfactory growth after 48 h under the conditions relevant for the MIC assay. This inoculation procedure is used in order to reduce day to day variation in bioassays.
Robotic minimum inhibitory concentration (MIC) assay was performed as follows. OligoG CF-5/20 was dissolved in medium (Mueller-Hinton broth) to 1.25 times of the desired assay concentrations (2, 6 and 10%). […].
Two-fold serial dilutions of antifungal agents were made in medium with different concentrations of OligoG CF-5/20, and the solutions were placed in four parallel wells in Nunc 384-well micro plates (30 μl per well in Nunc 242757 microplates). A group of 8 wells with no addition of antifungal agents for each OligoG CF-5/20 concentration was included on each micro plate as growth reference. Each well in the 384-well assay plates was added 7.5 μl of the MH medium inoculated with frozen stock culture of the relevant strains.
The microplates were placed in plastic bags and incubated without shaking at 34° C. The optical density at 600 nm in the microwells was measured after approximately 24 and 48 hours of incubation. […]

[2] = system: Aspergillus niger CCUG 18919; test: Robotic MIC assay, Aspergillus (Example 4); format: cell-based; details: Mueller-Hinton broth; for MIC: Aspergillus niger, CCUG18919, 48 h, read-out: Minimum Inhibitory Concentration (MIC); for Minimum Inhibitory Concentration (MIC): A. niger CCUG 18919, 48 hours
Procedure, shortened: (§1)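 Frozen spore/mycelium stocks were used as inoculum, sized for adequate 48 h growth. Two-fold antifungal dilutions were prepared in Mueller-Hinton broth with OligoG CF-5/20 (2, 6 or 10% assay concentrations; quadruplicate wells). Plates were incubated static at 34 °C, with OD600 read at about 24 and 48 h.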

[3] = system: Aspergillus flavus CCUG 28296; test: Robotic MIC assay, Aspergillus (Example 4); format: cell-based; details: Mueller-Hinton broth; for MIC: Aspergillus flavus, CCUG23451 / CCUG28296, 48 h, read-out: Minimum Inhibitory Concentration (MIC); for Minimum Inhibitory Concentration (MIC): A. flavus CCUG 23451, 48 hours
Procedure, shortened: as §1

[4] = system: C. parapsillosis ATCC 22019T; test: Robotic MIC assay, Candida strains (Example 2); format: cell-based, Candida parapsilosis; details: Mueller-Hinton broth; for MIC: Lodderomyces parapsilosis, ATCC22019, 48 h, read-out: Minimum Inhibitory Concentration (MIC); for Minimum Inhibitory Concentration (MIC): 48 h
Procedure: A robotic MIC Assay was performed as follows. OligoG CF-5/20 were dissolved in medium (Mueller-Hinton broth or M19 broth depending on experiment) to 1.25 times of the desired assay concentrations (2, 6 and 10%). The antifungal agents under test were dissolved in medium without OligoG CF-5/20 and in medium with OligoG CF-5/20 at a concentration of 1.25 times the highest desired assay concentrations. For experiments where the effect of adding different concentrations of Na^+ was investigated, NaCl was dissolved in medium to the desired concentrations (10, 30 and 50 mM).
Two-fold serial dilutions of antifungal agents were made in medium with different concentrations of OligoG CF-5/20, and the solutions were placed in four parallel wells in Nunc 384-well micro plates (30 μl per well in Nunc 242757 microplates). A group of 8 wells with no addition of antifungal agents for each OligoG CF-5/20 concentration was included on each microplate as growth reference. To each well in the 384-well assay plates was added 7.5 μl of medium inoculated with a frozen stock culture of Candida albicans (strain CCUG 39343).
The micro plates were placed in plastic bags and incubated without shaking at 34° C. The optical density at 600 nm in the microwells was measured after approximately 13, 18, 24 and 34 hours of incubation, and the relative growth yield in each well was calculated based on the growth in the reference groups.
The robotic assay described in Example 1 was employed in this Example. Strains were grown in Mueller-Hinton broth (LAB114 from Lab M Limited) and MIC values (μg ml-1) were determined for each antifungal after incubation for 48 h in the presence of 0, 2, 6 and 10% OligoG CF-5/20 G-fragments. […] OligoG CF-5/20 G-fragments were provided by AlgiPharma AS, Norway.
Candida strains used were as follows: • C. albicans CCUG 39343 (strain from culture collection) • C. parapsillosis ATCC 22019T (strain from culture collection) • C. krusei 141/03 (candidosis) • C. krusei 249/03(2) (ulceration) • C. lusitaniae 994/01(2) (candidosis) • C. tropicalis 12 (vaginal) • C. tropicalis 75 (vaginal) • C. tropicalis 519468 (urinary) • C. tropicalis 544123 (urinary) • C. tropicalis 250/03 (candidosis) • C. tropicalis AG1 (oral) • C. tropicalis T2.2 (oral)

[5] = A. niger CCUG 18919, 10% OligoG
[6] = A. flavus CCUG 23451, 0% OligoG
[7] = A. flavus CCUG 23451, 2% OligoG
[8] = A. flavus CCUG 23451, 6% OligoG
[9] = A. flavus CCUG 23451, 10% OligoG

Row | Compound | effect of addition of OligoG CF-5/20 on MIC values [1] | MIC ([2]; A. niger CCUG 18919, 0% OligoG) [µg/mL] | MIC ([2]; A. niger CCUG 18919, 2% OligoG) [µg/mL] | MIC ([2]; A. niger CCUG 18919, 6% OligoG) [µg/mL] | MIC [2, 5] [µg/mL] | MIC [3, 6] [µg/mL] | MIC [3, 7] [µg/mL] | MIC [3, 8] [µg/mL] | MIC [3, 9] [µg/mL] | MIC ([4]; 0% OligoG) [µg/mL] | MIC ([4]; 2% OligoG) [µg/mL] | MIC ([4]; 6% OligoG) [µg/mL] | MIC ([4]; 10% OligoG) [µg/mL] | other results
1 | C[C@@H]1[C@H](O)[C@@H](C)/C=C/C=C/C=C/C=C/C=C/C=C/C=C/[C@H](O[C@@H]2O[C@H](C)[C@@H](O)[C@H](N)[C@@H]2O)C[C@@H]2O[C@](O)(C[C@@H](O)C[C@@H](O)[C@H](O)CC[C@@H](O)C[C@@H](O)CC(=O)O[C@H]1C)C[C@H](O)[C@H]2C(=O)O [Amphotericin B, amphotericin B] | reduction in MIC values | 0.188 (≈ 0.203 µM) | 0.188 (≈ 0.203 µM) | 0.0938 (≈ 0.101 µM) | 0.0469 (≈ 0.0507 µM) | 0.75 (≈ 0.812 µM) | 0.375 (≈ 0.406 µM) | 0.375 (≈ 0.406 µM) | 0.188 (≈ 0.203 µM) |  |  |  |  | 
2 | OC(Cn1cncn1)(Cn1cncn1)c1ccc(F)cc1F [Fluconazole, fluconazole] |  | > 128 | > 128 | > 128 | 128 (≈ 418 µM) | 64 (≈ 209 µM) | 64 (≈ 209 µM) | 32 (≈ 104 µM) | 32 (≈ 104 µM) | 2 (≈ 6.53 µM) | 2 (≈ 6.53 µM) | 0.5 (≈ 1.63 µM) | 0.25 (≈ 0.816 µM) | 
3 | Clc1ccc(COC(Cn2ccnc2)c2ccc(Cl)cc2Cl)c(Cl)c1 (centres unmarked) [Miconazole, miconazole] | reduction in MIC values | 1 (≈ 2.4 µM) | 0.5 (≈ 1.2 µM) | 0.25 (≈ 0.601 µM) | 0.25 (≈ 0.601 µM) | 1 (≈ 2.4 µM) | 0.25 (≈ 0.601 µM) | 0.25 (≈ 0.601 µM) | 0.25 (≈ 0.601 µM) |  |  |  |  | 
4 | C[C@@H]1[C@H](O)[C@@H](C)/C=C/C=C/CC/C=C/C=C/C=C/C=C/C(O[C@H]2O[C@H](C)[C@@H](O)[C@H](N)[C@@H]2O)CC2O[C@](O)(CC(O)C(O)CCC(O)CC(O)CC(O)CC(=O)O[C@H]1C)CC(O)C2C(=O)O (some centres unmarked) [Nystatin, nystatin] | reduction in MIC values |  |  |  |  |  |  |  |  |  |  |  |  | Minimum Inhibitory Concentration (MIC) ([2]; 0% OligoG): 8 µg/mL; Minimum Inhibitory Concentration (MIC) ([2]; 2% OligoG): 4 µg/mL; Minimum Inhibitory Concentration (MIC) ([2]; 6% OligoG): 2 µg/mL; Minimum Inhibitory Concentration (MIC) ([2]; 10% OligoG): 0.5 µg/mL; Minimum Inhibitory Concentration (MIC) ([3]; 0% OligoG): 8 µg/mL; Minimum Inhibitory Concentration (MIC) ([3]; 2% OligoG): 8 µg/mL; Minimum Inhibitory Concentration (MIC) ([3]; 6% OligoG): 4 µg/mL; Minimum Inhibitory Concentration (MIC) ([3]; 10% OligoG): 2 µg/mL; Minimum Inhibitory Concentration (MIC) ([4]; 0% OligoG): 4 µg/mL; Minimum Inhibitory Concentration (MIC) ([4]; 2% OligoG): 2 µg/mL; Minimum Inhibitory Concentration (MIC) ([4]; 6% OligoG): 1 µg/mL; Minimum Inhibitory Concentration (MIC) ([4]; 10% OligoG): 0.5 µg/mL
5 | CN(C/C=C/C#CC(C)(C)C)Cc1cccc2ccccc12 [Terbinafine, terbinafine] | reduction in MIC values | 0.5 (≈ 1.72 µM) | 0.25 (≈ 0.858 µM) | 0.0625 (≈ 0.214 µM) | 0.125 (≈ 0.429 µM) | 0.125 (≈ 0.429 µM) | 0.0625 (≈ 0.214 µM) | < 0.0312 | < 0.0312 | 2 (≈ 6.86 µM) | 1 (≈ 3.43 µM) | 2 (≈ 6.86 µM) | 1 (≈ 3.43 µM) | 

From patent US20150126467A1, “USE OF ALGINATE OLIGOMERS TO ENHANCE THE EFFECTS OF ANTIFUNGAL AGENTS” (AlgiIPharma AS, priority 2011, published 2015)
